The values below come from ChEMBL document CHEMBL4152357, “Efflux pump inhibition by 11H-pyrido[2,1-b]quinazolin-11-one analogues in mycobacteria” (Bioorg Med Chem, 2018).

Converted amounts (≈) assume the structure as drawn. The source made the active and inactive calls. No cut-off for these calls is given here.

Data set [1] deals with T1, Multidrug efflux pump LfrA (Mycobacterium smegmatis (strain ATCC 700084 / mc(2)155)) (UniProt A0R5K5).
T1 sequence (whole entry): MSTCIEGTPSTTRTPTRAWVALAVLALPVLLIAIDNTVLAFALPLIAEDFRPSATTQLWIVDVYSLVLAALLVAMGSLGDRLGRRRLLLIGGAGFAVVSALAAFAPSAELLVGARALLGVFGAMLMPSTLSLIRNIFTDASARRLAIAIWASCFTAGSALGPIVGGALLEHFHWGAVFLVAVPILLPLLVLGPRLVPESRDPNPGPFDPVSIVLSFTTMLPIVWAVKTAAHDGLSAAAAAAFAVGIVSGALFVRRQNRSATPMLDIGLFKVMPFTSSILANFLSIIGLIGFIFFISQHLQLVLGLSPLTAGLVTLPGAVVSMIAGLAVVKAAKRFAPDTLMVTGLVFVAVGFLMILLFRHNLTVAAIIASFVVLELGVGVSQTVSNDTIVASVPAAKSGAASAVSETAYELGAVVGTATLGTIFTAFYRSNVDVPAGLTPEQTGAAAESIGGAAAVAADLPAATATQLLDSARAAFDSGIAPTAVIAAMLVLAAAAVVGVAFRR
Put plainly: Inhibition of LfrA in Mycobacterium smegmatis MC2 155 ATCC 700084 assessed as decrease in EtBr MIC at 3.125 ug/ml after 72 hrs by MTT assay relative to control. The conditions noted are these: Mycolicibacterium smegmatis MC2 155.

The target in data set [2] is T1, Multidrug efflux pump LfrA (Mycobacterium smegmatis (strain ATCC 700084 / mc(2)155)). Put plainly: Inhibition of LfrA in Mycobacterium smegmatis MC2 155 ATCC 700084 assessed as decrease in norfloxacin MIC at 25 ug/ml after 72 hrs by MTT assay relative to control. The conditions noted are these: Mycolicibacterium smegmatis MC2 155. (In general: Tetrazolium assays rely on reduction of a dye to a coloured formazan, in cell work by metabolically active cells.)

The test system of data set [3] is Mycolicibacterium smegmatis. In words: Growth inhibition of Mycobacterium smegmatis MC2 155 ATCC 700084 after 72 hrs by MTT assay. The class given is organism-based.
Data set [4] concerns the target T1, Multidrug efflux pump LfrA (Mycobacterium smegmatis (strain ATCC 700084 / mc(2)155)). In words: Inhibition of LfrA in Mycobacterium smegmatis MC2 155 ATCC 700084 assessed as increase in EtBr accumulation at 25 ug/ml measured every 5 mins for 35 mins by fluorometric analysis. Particulars: Mycolicibacterium smegmatis MC2 155.
Data set [5] has the same target. Put plainly: Inhibition of LfrA in Mycobacterium smegmatis MC2 155 ATCC 700084 assessed as increase in EtBr accumulation at 50 ug/ml measured every 5 mins for 35 mins by fluorometric analysis. The conditions noted are these: Mycolicibacterium smegmatis MC2 155.
For data set [6] the target is unchanged. In words: Inhibition of LfrA in Mycobacterium smegmatis MC2 155 ATCC 700084 assessed as potentiation of EtBr-induced bactericidal activity at 100 ug/ml after 24 hrs. The conditions noted are these: Mycolicibacterium smegmatis MC2 155.
The target is the same in data set [7]. Put plainly: Inhibition of LfrA in Mycobacterium smegmatis MC2 155 ATCC 700084 assessed as decrease in EtBr MIC at 100 ug/ml after 72 hrs by MTT assay relative to control. Particulars: Mycolicibacterium smegmatis MC2 155.
The next data set has as its system CC-1. Put plainly: Cytotoxicity against rat CC1 cells assessed as decrease in cell survival at 200 ug/ml after 24 hrs by Alamar blue reduction assay relative to control. It is filed as cell-based. The conditions noted are these: cc-1, 24 h. A general note: Alamar Blue is a resazurin reagent that responds to reducing activity.
Data set [8] deals with T1, Multidrug efflux pump LfrA (Mycobacterium smegmatis (strain ATCC 700084 / mc(2)155)). Put plainly: Inhibition of LfrA in Mycobacterium smegmatis MC2 155 ATCC 700084 assessed as decrease in norfloxacin MIC at 12.5 ug/ml after 72 hrs by MTT assay relative to control. The conditions noted are these: Mycolicibacterium smegmatis MC2 155.
Data set [9] is described as follows: Cytotoxicity against rat CC1 cells assessed as cell survival at 50 ug/ml after 24 hrs by Alamar blue reduction assay relative to control. The conditions noted are these: read-out: Survival. The class given is cell-based, CC-1.
A short description of data set [10]: Cytotoxicity against rat CC1 cells assessed as cell survival at 100 ug/ml after 24 hrs by Alamar blue reduction assay relative to control. It is filed as cell-based, CC-1. Particulars: read-out: Survival.
Data set [11] concerns the target T1, Multidrug efflux pump LfrA (Mycobacterium smegmatis (strain ATCC 700084 / mc(2)155)). Put plainly: Inhibition of LfrA in Mycobacterium smegmatis MC2 155 ATCC 700084 assessed as increase in norfloxacin accumulation at 25 ug/ml measured every 5 mins for 35 mins by fluorometric analysis. Particulars: Mycolicibacterium smegmatis MC2 155.
For data set [12] the target is unchanged. Put plainly: Inhibition of LfrA in Mycobacterium smegmatis MC2 155 ATCC 700084 assessed as potentiation of EtBr-induced bactericidal activity at 100 ug/ml after 48 hrs. Particulars: Mycolicibacterium smegmatis MC2 155.
Data set [13] has the same target. Put plainly: Inhibition of LfrA in Mycobacterium smegmatis MC2 155 ATCC 700084 assessed as potentiation of norfloxacin-induced bactericidal activity at 25 ug/ml after 24 to 48 hrs. The conditions noted are these: Mycolicibacterium smegmatis MC2 155.
Data set [14] shares this target. Put plainly: Inhibition of LfrA in Mycobacterium smegmatis MC2 155 ATCC 700084 assessed as potentiation of norfloxacin-induced bactericidal activity at 100 ug/ml after 48 hrs. Particulars: Mycolicibacterium smegmatis MC2 155.
The target is the same in data set [15]. In words: Inhibition of LfrA in Mycobacterium smegmatis MC2 155 ATCC 700084 assessed as decrease in norfloxacin MIC at 100 ug/ml after 72 hrs by MTT assay relative to control. Particulars: Mycolicibacterium smegmatis MC2 155.

For the molecule `Cc1ccn2c(=O)c3cccc(Cl)c3nc2c1`, in [1], the fold change (FC) was 2 and the fractional inhibitory concentration index (FICI) turned out to be 0.5. In data set [2], the fold change (FC) amounted to 4 and the fractional inhibitory concentration index (FICI) turned out to be 0.37. Besides, the MIC in data set [3] came out at 200 µg/mL (≈ 817 µM).

On to `COc1ccc(CCN(C)CCCC(C#N)(c2ccc(OC)c(OC)c2)C(C)C)cc1OC` (stereo not drawn) [VERAPAMIL], for which the MIC in [3] was found to be 300 µg/mL (≈ 660 µM).

For the molecule `Cc1ccn2c(=O)c3cccc(F)c3nc2c1`, the inhibition result in data set [4] and in [6] was “Active” in each case. For the same molecule, the Activity in data set [5] is over 150 FU; in the data set on CC-1 it was over 50%. Further, the fold change (FC) in [7] turned out to be 8; in data set [8] it was 4. Besides, the fractional inhibitory concentration index (FICI) in [7] was found to be 0.62; in data set [8], 0.3. In data set [3], the MIC turned out to be 200 µg/mL (≈ 876 µM). In data set [9], the viability at 24 h, 50 ug/ml amounted to 96%. In data set [10], the viability at 24 h, 100 ug/ml came to 43%.

For the molecule `O=c1c2cccc(Cl)c2nc2c3ccccc3ccn12`, in [7], the fold change (FC) was found to be 2 and the fractional inhibitory concentration index (FICI) was determined as 1. Moreover, in data set [2], the fold change (FC) was 4 and the fractional inhibitory concentration index (FICI) worked out at 0.37. In data set [3], this molecule registered an MIC of 200 µg/mL (≈ 712 µM).

Regarding `O=c1c2ccccc2nc2ccccn12`, the Activity is 2000 FU in data set [11], under 150 FU in [5] and over 50% in the data set on CC-1. Besides, in [4], the inhibition result was “inactive”. Also, the inhibition entry in data set [12] and in data set [6] was “Active” in each case. Moreover, the Activity (deltalog10CFU/ml) in data set [13] is over 3. The fold change (FC) in data set [7] and in data set [2] was 8 throughout. Besides, the fractional inhibitory concentration index (FICI) is 0.62 in data set [7] and 0.25 in data set [2]. The same molecule came in with an MIC in data set [3] of 200 µg/mL (≈ 1020 µM). In addition, the viability at 24 h, 50 ug/ml in [9] is 86%. Moreover, in data set [10], the viability at 24 h, 100 ug/ml turned out to be 70%.

Take `Cc1cccn2c(=O)c3ccccc3nc12`: the inhibition entry in data set [4] and in data set [6] was “Active” in each case. The values for the Activity (in data set [5]; in the data set with CC-1) were 250 FU and over 50%, respectively. The values for the fold change (FC) in data set [7] and in data set [8] were 8 and 4, respectively. The fractional inhibitory concentration index (FICI) in [7] was determined as 0.62; in [8], 0.3. The molecule further gave an MIC in data set [3] of 200 µg/mL (≈ 951 µM). The viability at 24 h, 50 ug/ml in data set [9] came to 45%. For the same molecule, the viability at 24 h, 100 ug/ml in data set [10] was determined as 81%.

On to `O=c1c2ccc(Cl)cc2nc2ccccn12`, for which the Activity in data set [11] was 18000 FU; in data set [5] it was 248 FU; in the data set with CC-1, over 50%. The inhibition entry in data set [4] and in [6] was “Active” in each case. The fold change (FC) in [7] and in data set [15] was 8 each time. Also, the fractional inhibitory concentration index (FICI) in data set [7] and in data set [15] was 0.62 each time. Further, in data set [14], the Activity (deltalog10CFU/ml) is 4. Also, the MIC in data set [3] worked out at 200 µg/mL (≈ 867 µM). In addition, the viability at 24 h, 50 ug/ml in [9] was found to be 80%. For the same molecule, the viability at 24 h, 100 ug/ml in data set [10] stood at 70%.

In the case of `Cc1cccn2c(=O)c3ccc(Br)cc3nc12`, in data set [2], the fold change (FC) came out at 4 and the fractional inhibitory concentration index (FICI) came out at 0.37. The same molecule showed an MIC in data set [3] of 200 µg/mL (≈ 692 µM).
